# Assay results taken from patent publication US12122750B2, “AT2R antagonists and uses thereof” (Eli Lilly and Company, priority 2022, dated 2024).
# Target: recombinant human angiotensin-II receptor subtype 2 (hAT2R) (Homo sapiens (Human), UniProt P50052)
# Assay: Competitive radioligand binding assay (SPA), hAT2R HEK293 membranes
# Details: [125I]-Tyr4-Angiotensin-II, read-out: AT2R Ki
# Experimental: Compound Solubilization Test and reference compounds were received as dry powder reagents, weighed, and solubilized in 100% DMSO to generate a working stock concentration of 10 mM. Membrane Preparation Protocol (hAT2R HEK293 and rAT2R HEK293) hAT2R membranes were prepared from human embryonic kidney (HEK293) cells which were stably transfected with recombinant human angiotensin-II receptor subtype 2 (hAT2R). Cells from the stable cell lines were expanded in tissue culture flasks to generate a large population of cells; cell pellet (>1 gm), and these cell pellets were stored frozen prior to initiating this membrane isolation procedure for each receptor isoform. Frozen cell pellets were thawed in ice-cold homogenization/resuspension buffer (50 mM Tris-HCl, pH 7.5) containing one Complete© protease inhibitor tablet with EDTA (Roche Diagnostics) per 50 mL buffer, and cell pellet was resuspended at a ratio of 10 mL homogenization buffer to gram of starting cell pellet. Cell suspension was homogenized with an overhead motor-driven Teflon-glass homogenizer using 15 to 20 strokes, followed by centrifugation at 1100×g for 10 minutes at 4° C. The supernatant was saved on ice, pellets were homogenized as before, and centrifuged at 1100×g for 10 minutes at 4° C. Both supernatants were combined and subsequently centrifuged at 35,000×g for 60 minutes at 4° C. The final centrifugation pellet (pellet 2) containing the isolated membranes was resuspended in buffer (4 to 5 mL/g of starting cell paste) containing protease inhibitors and quick frozen in liquid nitrogen prior to storage at -80° C. Protein concentration was determined using a BCA kit (ThermoScientific, Inc.) with bovine serum albumin (BSA) as standard. […] The assays were performed with a scintillation proximity assay (SPA) method using polyvinyltoluene (PVT) wheat germ agglutinin-coupled SPA beads (Perkin Elmer Cat. #RPNQ0001). Assay buffer containing BSA (50 mM Tris-HCl, pH 7.5, 150 mM NaCl, 0.1% w/v fatty-acid free BSA) was used for preparing radioligand, membrane and SPA bead reagent dilution to working stock concentrations. Reference control and test compounds were diluted to obtain ten-point concentration response curves using a four-fold serial dilution protocol onto assay plates, dispensed acoustically from DMSO stock using automated ECHO instrument technology (Labcyte, Inc.). Concentration response curves were routinely generated with the highest final assay concentration for the reference angiotensin-II control at 50 nM, and the highest final assay concentration for the test compounds at 50 μM. […] The hAT2R membrane was combined with PVT-WGA SPA beads to obtain a final assay concentration of 0.25 μg/well hAT2R membrane+0.1 mg/well PVT-WGA SPA bead. And the hAT1R membrane PVT-WGA SPA bead final concentrations was 0.5 μg/well hAT1R membrane+0.1 mg/well PVT-WGA SPA bead. […] For all assays, radioligand addition was followed by the addition of membrane-SPA bead mixture, i.e., the hAT2R membrane-SPA bead mixture (30 μL), the rAT2R membrane-SPA bead mixture, or the AT1R membrane-SPA bead mixture (30 μL) into the assay plate. All dispensing steps were added using a Multiflo FX (Biotek, Inc.) bulk dispensing instrument. After reagent addition steps, assay plates were sealed, and plate contents mixed for one minute on a benchtop micro-plate shaker. Following a 10-hour incubation at room temperature to allow for bead settling and radioligand binding, bound radioactivity was quantitated using a Microbeta Trilux scintillation counter (Perkin Elmer) and expressed as counts per minute (CPM). The unlabeled angiotensin-II control was included on each plate as an experimental assay reference. […] Data Analysis Procedures Compounds were tested in a 10-point concentration response curve (CRC) format, with each plate containing the positive control angiotensin-II positive reference compound, and experimental compounds.
# recombinant human angiotensin-II receptor subtype 2 (hAT2R), sequence (P50052 whole entry): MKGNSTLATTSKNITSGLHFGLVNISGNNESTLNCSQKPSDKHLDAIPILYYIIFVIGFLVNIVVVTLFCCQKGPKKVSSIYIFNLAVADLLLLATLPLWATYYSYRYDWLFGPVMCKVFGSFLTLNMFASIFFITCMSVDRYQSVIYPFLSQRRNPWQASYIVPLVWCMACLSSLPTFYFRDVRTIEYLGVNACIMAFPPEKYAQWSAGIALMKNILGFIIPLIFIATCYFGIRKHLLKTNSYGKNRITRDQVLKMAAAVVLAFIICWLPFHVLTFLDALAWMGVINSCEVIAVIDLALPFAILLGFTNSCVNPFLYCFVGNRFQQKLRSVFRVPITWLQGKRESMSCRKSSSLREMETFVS
row,Ki [nM],SMILES
1,3.39,"CC(C)c1ccc(N(C(=O)CC2(C(=O)O)CCN(C(=O)N(C)c3ccc(F)cc3)CC2)c2ccccc2)cc1 [compound 28, 1-[(4-fluorophenyl)-methyl-carbamoyl]-4-[2-(N-(4-isopropylphenyl)anilino)-2-oxo-ethyl]piperidine-4-carboxylic acid]"
2,2.11,"CN(C(=O)N1CCC(CC(=O)N(c2ccccc2)C2(C3CC3)CC2)(C(=O)O)CC1)c1ccc(F)cc1 [compound 20, 4-[2-(N-(1-cyclopropylcyclopropyl)anilino)-2-oxo-ethyl]-1-[(4-fluorophenyl)-methyl-carbamoyl]piperidine-4-carboxylic acid]"
3,0.823,"Cc1cccc(N(C(=O)CC2(C(=O)O)CCN(C(=O)N(C)c3ccc(F)cc3)CC2)c2ccccc2)c1 [compound 23, 1-[(4-fluorophenyl)-methyl-carbamoyl]-4-[2-[N-(m-tolyl)anilino]-2-oxo-ethyl]piperidine-4-carboxylic acid]"
4,3.12,"CN(C(=O)N1CCC(CC(=O)N(c2ccccc2)C2CCCOC2)(C(=O)O)CC1)c1ccc(C2CC2)cc1 (racemic) [Example 45, 1-[(4-cyclopropylphenyl)-methyl-carbamoyl]-4-[2-oxo-2-(N-tetrahydropyran-3-ylanilino)ethyl]piperidine-4-carboxylic acid]"
5,9.86,"O=C(N1CCC(CC(=O)N(c2ccccc2)c2ccc(F)cc2)(C(=O)O)CC1)N1CCc2ccccc21 [Example 58, 4-[2-(N-(4-fluorophenyl)anilino)-2-oxo-ethyl]-1-(indoline-1-carbonyl)piperidine-4-carboxylic acid]"
6,8.14,"O=C(N1CCC(CC(=O)N(c2ccccc2)C2CCCC(F)(F)C2)(C(=O)O)CC1)N1CCc2ccc(F)cc21 (single isomer, unassigned) [Example 72A, 4-[2-(N-(3,3-difluorocyclohexyl)anilino)-2-oxo-ethyl]-1-(6-fluoroindoline-1-carbonyl)piperidine-4-carboxylic acid]"
7,10.8,"O=C(N1CCC(CC(=O)N(c2ccccc2)C2CCCC(F)(F)C2)(C(=O)O)CC1)N1CCc2ccccc21 (single isomer, unassigned) [Example 35A, 4-[2-(N-(3,3-difluorocyclohexyl)anilino)-2-oxo-ethyl]-1-(indoline-1-carbonyl)piperidine-4-carboxylic acid]"
8,2.55,"O=C(Cc1ccccc1F)N1CCC(CC(=O)N(c2ccccc2)C2CCCC(F)(F)C2)(C(=O)O)CC1 (racemic) [Example 65, 4-[2-(N-(3,3-difluorocyclohexyl)anilino)-2-oxo-ethyl]-1-[2-(2-fluorophenyl)acetyl]piperidine-4-carboxylic acid]"
9,1.76,"O=C(CC1(C(=O)O)CCN(C(=O)N(c2ccc(F)cc2)C2CC2)CC1)N(c1ccccc1)C1CCCCC1 [Example 16, 4-[2-(N-cyclohexylanilino)-2-oxo-ethyl]-1-[cyclopropyl-(4-fluorophenyl)carbamoyl]piperidine-4-carboxylic acid]"
10,5.82,"CCC(C1CC1)N(C(=O)CC1(C(=O)O)CCN(C(=O)N(C)c2ccc(F)cc2)CC1)c1ccccc1 (racemic) [Example 17, 4-[2-[N-(1-cyclopropylpropyl)anilino]-2-oxo-ethyl]-1-[(4-fluorophenyl)-methyl-carbamoyl]piperidine-4-carboxylic acid]"
11,2.58,"COc1ccc(N(C)C(=O)N2CCC(CC(=O)N(c3ccccc3)C3CCCCC3)(C(=O)O)CC2)cc1 [Example 14, 4-[2-(N-cyclohexylanilino)-2-oxo-ethyl]-1-[(4-methoxyphenyl)-methyl-carbamoyl]piperidine-4-carboxylic acid]"
12,4.23,"O=C(N1CCC(CC(=O)N(c2ccccc2F)c2ccccc2F)(C(=O)O)CC1)N1CCc2ccccc21 [Example 59, 4-[2-(2-fluoro-N-(2-fluorophenyl)anilino)-2-oxo-ethyl]-1-(indoline-1-carbonyl)piperidine-4-carboxylic acid]"
13,1.04,"CC(C(=O)N1CCC(CC(=O)N(c2ccccc2)C2CCCC(F)(F)C2)(C(=O)O)CC1)c1ccc(F)cc1 (racemic) [Example 62, 4-[2-(N-(3,3-difluorocyclohexyl)anilino)-2-oxo-ethyl]-1-[2-(4-fluorophenyl)propanoyl]piperidine-4-carboxylic acid]"
14,4.43,"CC(CC(F)F)N(C(=O)CC1(C(=O)O)CCN(C(=O)N(C)c2ccc(F)cc2)CC1)c1ccccc1 (racemic) [Example 36, 4-[2-(N-(3,3-difluoro-1-methyl-propyl)anilino)-2-oxo-ethyl]-1-[(4-fluorophenyl)-methyl-carbamoyl]piperidine-4-carboxylic acid]"
15,2.93,"CC(C)c1ccc(C(=O)N2CCC(CC(=O)N(c3ccccc3)C3CCCC(F)(F)C3)(C(=O)O)CC2)c(F)c1 (racemic) [Example 68, 4-[2-(N-(3,3-difluorocyclohexyl)anilino)-2-oxo-ethyl]-1-(2-fluoro-4-isopropyl-benzoyl)piperidine-4-carboxylic acid]"
16,4.32,"CC(C)C(C)N(C(=O)CC1(C(=O)O)CCN(C(=O)N(C)c2ccc(F)cc2)CC1)c1ccccc1 (racemic) [Example 34, 4-[2-(N-[(1)-1,2-dimethylpropyl]anilino)-2-oxo-ethyl]-1-[(4-fluorophenyl)-methyl-carbamoyl]piperidine-4-carboxylic acid]"
17,5.21,"O=C(CC1(C(=O)O)CCN(c2ccccn2)CC1)N(c1ccccc1)C1CCCCC1 [Example 49, 4-[2-(N-cyclohexylanilino)-2-oxo-ethyl]-1-(2-pyridyl)piperidine-4-carboxylic acid]"
18,1.19,"CC(C(=O)N1CCC(CC(=O)N(c2ccccc2)C2CCCC(F)(F)C2)(C(=O)O)CC1)c1cccc(F)c1 (racemic) [Example 63, 4-[2-(N-(3,3-difluorocyclohexyl)anilino)-2-oxo-ethyl]-1-[2-(3-fluorophenyl)propanoyl]piperidine-4-carboxylic acid]"
19,14.7,"CN(C(=O)N1CCC(CC(=O)N(c2ccccc2)C2CCCOC2)(C(=O)O)CC1)c1ccc(F)cc1 (single isomer, unassigned) [Example 41B, 1-[(4-fluorophenyl)-methyl-carbamoyl]-4-[2-oxo-2-(N-tetrahydropyran-3-ylanilino)ethyl]piperidine-4-carboxylic acid]"
20,9.39,"O=C(c1ccc(C2CC2)cc1)N1CCC(CC(=O)N(c2ccccc2)C2CCCC(F)(F)C2)(C(=O)O)CC1 (racemic) [Example 70, 1-(4-cyclopropylbenzoyl)-4-[2-(N-(3,3-difluorocyclohexyl)anilino)-2-oxo-ethyl]piperidine-4-carboxylic acid]"
21,9.24,"CC(C)c1ccc(C(=O)N2CCC(CC(=O)N(c3ccccc3)C3CCCC(F)(F)C3)(C(=O)O)CC2)cc1 (racemic) [Example 69, 4-[2-(N-(3,3-difluorocyclohexyl)anilino)-2-oxo-ethyl]-1-(4-isopropylbenzoyl)piperidine-4-carboxylic acid]"
22,2.82,"O=C(CC1(C(=O)O)CCN(C(=O)N(c2ccc(F)cc2)C2CC2)CC1)N(c1ccccc1)c1ccccc1 [Example 39, 1-[cyclopropyl-(4-fluorophenyl)carbamoyl]-4-[2-oxo-2-(N-phenylanilino)ethyl]piperidine-4-carboxylic acid]"
23,0.4,"CN(C(=O)N1CCC(CC(=O)N(c2cccc(F)c2)C2CCCCC2)(C(=O)O)CC1)c1ccc(F)cc1 [compound 27, 4-[2-(N-cyclohexyl-3-fluoro-anilino)-2-oxo-ethyl]-1-[(4-fluorophenyl)-methyl-carbamoyl]piperidine-4-carboxylic acid]"
24,0.409,"CN(C(=O)N1CCC(CC(=O)N(c2ccccc2F)c2ccccc2F)(C(=O)O)CC1)c1ccccc1 [Example 46, 4-[2-(2-fluoro-N-(2-fluorophenyl)anilino)-2-oxo-ethyl]-1-[methyl(phenyl)carbamoyl]piperidine-4-carboxylic acid]"
